Entries after “also recorded” stand apart in the source; their conditions may differ.
Key:
[1] = tested on: rat basilar arteries; test: 48 h organ culture of basilar artery, VDCC independent contraction (Ca2+ curve after ET-1 precontraction with nimodipine); assay type: cell-based; conditions: 1 μM inhibitor, 48 h OC, 10^-7 M nimodipine
Procedure: Rats were sedated with O2/CO2 (30/70%) and sacrificed by decapitation. Brains were gently removed and chilled in a cold oxygenated buffer solution of the following composition: 119 mM NaCl, 4.6 mM KCl, 1.5 mM CaCl2, 1.2 mM MgCl2, 1.2 mM NaH2PO4, 15 mM NaHCO3 and 5.5 mM Glucose; pH 7.4. The basilar artery (BA) was carefully dissected from the brain in a physiological buffer solution followed by either OC (naïve animals) or directly mounted in a wire myograph (arteries from rats which has undergone surgical procedures). Segments were incubated for 48 hours at 37° C. in humidified 5% CO2/O2 in DMEM supplemented with streptomycin and penicillin with inhibitors or vehicle (DMSO). Culture media was changed after 24 hours.
The segments were equilibrated in physiological buffer aerated with 95% O2/5% CO2, pH of 7.4, temperature set at 37° C. and the wires were separated for isometric pretension at 2 Nm^−1. The arterial segments were exposed two or three times with 60 mM K^+, by exchanging the buffer with a 60 mM K^+ buffer solution. To maintain equal osmolarity, a proportional amount of Na^+ had been removed from the buffer. An absolute cut-off was set at 2.0 mN K^+max for inclusion of arterial segments from rats that underwent the surgical procedure. Endothelium function was evaluated with the addition of 5-HT (3.10^−7 M) followed by carbachol (10^−5 M). […]

[2] = tested on: rat middle cerebral arteries (ETB receptor); test: 48 h in vitro organ culture of MCAs, wire myography (S6c, ET-1); assay type: cell-based
Procedure: MCAs from naïve rats were dissected and segments (1.5 mm) were incubated for 48 h in Dulbecco's modified Eagle's medium contained L-glutamine (584 mg/L) supplemented with penicillin (100 U/ml) and streptomycin ([…]) at humidified 5% CO2 atmosphere. Before incubation, 4 different concentrations of trametinib (5 μM, 1 μM, 0.1 μM or 0.03 μM), dissolved in 0.1% dimethyl sulfoxide (DMSO) in NaCl, or 0.1% DMSO in NaCl (vehicle) was added.

[3] = Solubility (statement); assay type: physicochemical
[4] = tested on: rat basilar arteries; test: 48 h organ culture of basilar artery, endothelium function / vasodilation (carbachol, SNP, CGRP); assay type: cell-based; conditions: 1 μM inhibitor
Procedure: Rats were sedated with O2/CO2 (30/70%) and sacrificed by decapitation. […] The basilar artery (BA) was carefully dissected from the brain in a physiological buffer solution followed by either OC (naïve animals) or directly mounted in a wire myograph (arteries from rats which has undergone surgical procedures). Segments were incubated for 48 hours at 37° C. in humidified 5% CO2/O2 in DMEM supplemented with streptomycin and penicillin with inhibitors or vehicle (DMSO). Culture media was changed after 24 hours.
For contractility measurements, both incubated BAs (ex vivo) and BAs after surgical procedure (in vivo) were cut into segments and mounted on a pair of metal wires (40 μm) in a myograph bath. The arteries from OC were mounted the same way after 48 hours in media. One wire was attached to a micro-meter screw which allows for fine adjustments of the distance between the wires, controlling the vascular tone.
The arterial segments were exposed two or three times with 60 mM K^+, by exchanging the buffer with a 60 mM K^+ buffer solution. To maintain equal osmolarity, a proportional amount of Na^+ had been removed from the buffer. An absolute cut-off was set at 2.0 mN K^+max for inclusion of arterial segments from rats that underwent the surgical procedure. Endothelium function was evaluated with the addition of 5-HT (3.10^−7 M) followed by carbachol (10^−5 M). For arteries from the OC the protocol was as followed: first a cumulative concentration-response curve to sarafotoxin 6C (S6c, 10^−14-10^−7 M), followed by a concentration-response curve to endothelin-1 (ET-1, 10^−14-10^−7 M). At peak ET-1 (10^−7 M), the buffer was changed to a Ca^2+-free buffer containing 10^−7 M ET-1 and nimodipine (L-type of voltage dependent Ca^2+ channel entry blocker, 10^−7 M). […] When vasodilation was investigated arteries was precontracted with U46619 (1.10^−7-3.10^−7 M) or K^+ (41 mM) and cumulative concentration-response curves was performed by adding calcitonin gene-related peptide (CGRP, 10^−12-10^−7 M), carbachol (10^−10-10^−5 M) or SNP (10^−11-10^−4 M).

Compound: CC(=O)Nc1cccc(-n2c(=O)n(C3CC3)c(=O)c3c(Nc4ccc(I)cc4F)n(C)c(=O)c(C)c32)c1 [trametinib]
- VDCC independent contraction [1]: significantly prevented
- increased ET-1-induced vasoconstriction of MCAs ([2]; 0.1 μM, 48 h OC): total blockage of the ETB receptor subtype response; also recorded: significantly inhibit; also recorded: inhibitory effect
- S6c-induced contraction of MCAs ([2]; 48 h OC, 5, 1, 0.1 or 0.03 μM, concentration-dependent): significantly inhibited
- solubility [3]: excellent solubility
- Emax following NO donor sodium nitroprusside (SNP) ([4]; 48 h OC): significant differences in the Emax
- response to CGRP ([4]; 48 h OC): No differences
- vasodilation in response to carbachol (10^-10-10^-5 M) ([4]; 48 h OC, precontracted with U46619 or K+): improved vasodilation
- endothelium function (10-5 M carbachol on arteries precontracted with 5-HT) vs DMSO ([4]; 48 h organ culture): significant better endothelium function; also recorded: significant increase

Source: patent US20220273660A1, “MEK INHIBITOR FOR TREATMENT OF STROKE” (EDVINCE AB, priority 2019, published 2022)
